The results in this text go back to ChEMBL document CHEMBL1201862, “PubChem BioAssay data set” (2004).

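Step 1: Grow cells in 96-well plates. Step 2: Expose to compound for 48 hours at 5 concentrations. Step 3: Interpolate endpoints linearly; if unreached, use highest concentration. GI50 = concentration required for 50% inhibition of growth.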 Calls of active or inactive are those of the source. No stated cut-off is given here; in the data, active = GI50 up to about 1.1 µM and inactive = higher.

Common to all, as to experiment: NCI-60 cell line screen, 48 h
In test [1] the test system is MOLT-4.
The test system of test [2] is KM12.
The test system of test [3] is A549.
Test [4] has as its system HCC 2998.
The subject of test [5] is EKVX.
The test system of test [6] is NCI-H460.
Test [7] has as its system SF-539.
The subject of test [8] is UACC-257.
For test [9], the system named is SN12C.
Test [10] relates to OVCAR-8.
Test [11] relates to U-251.
The subject of test [12] is SK-OV-3.
Test [13] deals with OVCAR-3.
The subject of test [14] is SF-295.
Test [15] has as its system NCI-H23.
Test [16] relates to SK-MEL-5.
Test [17] has as its system HT-29.
Test [18] relates to COLO 205.
Test [19] relates to SNB-19.
Test [20] concerns OVCAR-4.

Turning to `CCc1cc2c(cc1CCCC(=O)O)CC1(Cc3ccc(C(=O)O)cc3C1)C2` (centres undefined), the GI50 in [1], in test [2], in test [3], in test [4], in test [5] and in test [6] was > 100 µM (inactive) throughout. The GI50 in test [7], in test [8], in [9], in [10], in [11] and in test [12] was > 100 µM (inactive) each time. In addition, the GI50 in test [13], in [14], in test [15], in test [16], in [17] and in [18] was > 100 µM (inactive) in each case. Moreover, the GI50 in test [19] and in test [20] was > 100 µM (inactive) throughout.
As for `COC1C(O)CC(OC2CC(Oc3cc4cc5c(c(O)c4c(O)c3C)C(=O)[C@@H](OC3CC(OC4CC(OC6CC(C)(O)C(OC(C)=O)C(C)O6)C(O)C(C)O4)C(O)C(C)O3)[C@H]([C@H](OC)C(=O)[C@@H](O)[C@@H](C)O)C5)OC(C)C2OC(C)=O)OC1C` (some centres undefined) [CHROMOMYCIN], the GI50 in test [1] was < 0.01 µM (active); in test [2], < 0.01 µM (active); in test [3], 0.00382 µM (active); in test [4], < 0.01 µM (active); in test [5], 0.00532 µM (active); in test [6], < 0.0133 µM (active). For the same compound, the GI50 is 0.00326 µM (active) in [7]; < 0.01 µM (active) in [8]; 0.0101 µM (active) in test [9]; < 0.01 µM (active) in test [10]; 0.00344 µM (active) in test [11]; 0.00673 µM (active) in test [12]. The GI50 in test [13] is < 0.01 µM (active); in test [14] it was 0.0139 µM (active); in test [15], < 0.01 µM (active); in test [16], < 0.01 µM (active); in [17] it was < 0.01 µM (active); in test [18] it was < 0.01 µM (active). The GI50 in test [19] is 0.00424 µM (active); in [20], < 0.01 µM (active).
`N#CCCC1(CCC#N)CCCCCCC(CCC#N)(CCC#N)C(O)C1O` (centres undefined): the GI50 in test [2], in test [3], in [4], in [6], in [7] and in test [8] was > 100 µM (inactive) each time. Besides, the GI50 is 52.2 µM (inactive) in test [9]; > 100 µM (inactive) in test [10]; > 100 µM (inactive) in test [11]; > 100 µM (inactive) in test [12]; > 100 µM (inactive) in [13]; > 100 µM (inactive) in [14]. Also, the GI50 in test [15] was > 100 µM (inactive); in test [16] it was > 100 µM (inactive); in test [17], > 100 µM (inactive); in [18] it was 41.9 µM (inactive); in test [19], > 100 µM (inactive); in [20], > 100 µM (inactive).
As to `COc1cccc(N2C(=O)C3c4[nH]c5ccc(C)cc5c4C4CCC(C(C)(C)C)CC4C3C2=O)c1` (centres undefined), the GI50 in [1] is 1.97 µM (inactive); in [2], 3.52 µM (inactive); in test [3] it was 3.38 µM (inactive); in test [4], 4.11 µM (inactive); in [5], 4.84 µM (inactive); in [6], 2.21 µM (inactive). Also, the GI50 in test [7] is 2.86 µM (inactive); in test [9] it was 3.15 µM (inactive); in test [10] it was 2.58 µM (inactive); in [11], 3.52 µM (inactive); in [12], > 10 µM (inactive); in [13] it was 5.46 µM (inactive). Besides, the GI50 in [14] is > 10 µM (inactive); in [15] it was 2.24 µM (inactive); in [16], 7.67 µM (inactive); in [17], 4.08 µM (inactive); in test [18], 7.16 µM (inactive); in test [19] it was > 10 µM (inactive). Moreover, in test [20], the GI50 is 6.27 µM (inactive).
On to `COc1cc(C(C)O)c(S(=O)(=O)CC(C)O)nn1` (centres undefined), for which the GI50 is 77.4 µM (inactive) in test [1]; > 100 µM (inactive) in test [2]; > 100 µM (inactive) in test [3]; > 100 µM (inactive) in [4]; 75.5 µM (inactive) in test [5]; > 100 µM (inactive) in [6]. In addition, the GI50 in [7], in test [8], in [9], in test [10], in [12] and in test [13] was > 100 µM (inactive) each time. Besides, the GI50 in test [14], in [15], in test [16], in test [17], in test [18] and in [19] was > 100 µM (inactive) throughout. For the same compound, the GI50 in test [20] was > 100 µM (inactive).
With `CC(/C=N/N=C(N)N)=N\N=C(N)N`, the GI50 in test [1] is 9.25 µM (inactive); in [2] it was 2.83 µM (inactive); in [3], 61.9 µM (inactive); in [4], 5.57 µM (inactive); in test [5], 29.1 µM (inactive); in test [6], 8.97 µM (inactive). In addition, the GI50 in [7] was 8.04 µM (inactive); in test [8], 140 µM (inactive); in test [9], 106 µM (inactive); in test [10], 4.55 µM (inactive); in test [11] it was 18.5 µM (inactive); in test [12], 43.4 µM (inactive). The GI50 is 6.11 µM (inactive) in test [13]; 92.3 µM (inactive) in test [14]; 18.5 µM (inactive) in test [15]; 191 µM (inactive) in test [16]; 3.02 µM (inactive) in test [18]; 36.1 µM (inactive) in test [19]. Also, in test [20], the GI50 is 3.4 µM (inactive).
`CCC(C)COC(=O)c1ccc(/N=C\c2ccc(/C=N/c3ccc(C(=O)OCC(C)CC)cc3)cc2)cc1` (centres undefined): the GI50 in test [1], in test [3], in test [4], in test [5], in test [6] and in test [7] was > 100 µM (inactive) throughout. The GI50 in test [8], in test [9], in test [10], in test [11], in [12] and in [13] was > 100 µM (inactive) each time. For the same compound, the GI50 in test [14], in test [15], in [16], in test [17], in [18] and in test [19] was > 100 µM (inactive) in each case. Further, the GI50 in [20] was > 100 µM (inactive).
